Laboratory results reported in publication PMC12010937, “Evaluation of FXR Activity in Pollutants Identified in Sewage Sludge and Subsequent in Vitro and in Vivo Characterization of Metabolic Effects of Triphenyl Phosphate” (Environmental Health Perspectives, 2025).
“And” between values parts separate entries of the source, which are not always exact repeats. Equal values may be shown once. “Also recorded” adds a separate entry of the source.

Columns and labels:
[1] = target: T1, FXR (pCDNA3.1-hFXR, FXRE-luc) (Homo sapiens, UniProt Q96RI1); assay: cell-based; format: cell-based
T1 construct: host or cells: HEK 293T
T1 sequence (Q96RI1 1-486): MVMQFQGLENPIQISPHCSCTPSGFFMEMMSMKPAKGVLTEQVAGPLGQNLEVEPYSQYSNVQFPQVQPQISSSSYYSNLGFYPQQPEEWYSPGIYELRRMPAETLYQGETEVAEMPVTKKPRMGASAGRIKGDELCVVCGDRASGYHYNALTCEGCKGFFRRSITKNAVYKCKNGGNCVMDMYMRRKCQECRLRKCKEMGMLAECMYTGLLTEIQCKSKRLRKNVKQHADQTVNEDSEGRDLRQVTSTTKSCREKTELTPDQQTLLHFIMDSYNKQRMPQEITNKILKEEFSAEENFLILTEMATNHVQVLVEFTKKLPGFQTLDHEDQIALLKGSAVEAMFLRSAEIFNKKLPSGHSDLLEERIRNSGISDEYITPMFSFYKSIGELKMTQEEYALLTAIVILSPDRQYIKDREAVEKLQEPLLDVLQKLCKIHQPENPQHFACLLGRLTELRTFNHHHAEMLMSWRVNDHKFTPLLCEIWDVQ

[2] = Body weight during exposure; format: in vivo, C57BL/6N mice; details: for Relative body weight / Body weight: individual mice
Procedure: Male C57BL/6N mice (8 wk of age) were purchased from Beijing Vital River Laboratory Inc. and acclimated to the environment for 2 wk before they were used for experiments. The environment was maintained at 22°C, in a 12-h light/dark cycle with 50%–60% relative humidity and fed standard chow diets. Because the male mice are more sensitive to metabolic disease than female mice and the estrous cycle of female mice may induce variability to the metabolic phenotypes,[50] only male mice were used in this study. Animals were randomly assigned to control or TPHP treatment groups (five mice per group). Mice were exposed to corn oil (control) purchased from Sigma-Aldrich (C8267) or TPHP (dissolved in corn oil) at 10mg/kg or 50mg/kg body weight (BW) by daily oral gavage for 35 d. The administered volume was 5mL/kg BW. The TPHP corn oil solutions for administration were prepared by dissolving the TPHP in corn oil, and the solutions were stored at −20°C and freshly prepared each week. BW was measured every other day during the dosing period. At the end of experiments, the mice were anesthetized with isoflurane, then blood was collected from the retro-orbital sinus via orbital puncture, and then the mice were euthanized by cervical dislocation. The liver was isolated, weighted, and divided into three fractions: one fraction was fixed with 4% neutral-buffered formalin for Oil Red staining; another fraction was frozen in liquid nitrogen and stored at −80°C for the BA targeted analysis, lipidomic analysis, and qPCR analysis; the remaining fraction was embedded with 3% carboxymethylcellulose (CMC) for MSI analysis. The ileum was also isolated, weighted, and stored at −80°C for the BA targeted analysis and qRT-PCR analysis. Cecal contents were collected from the cecum of mice for the 16S rRNA gene sequencing analysis. Animal study protocols were approved by the Animal Care and Use Committee of Peking University (approval number: Urban-WanY-1).

PXR = details: in vitro assays and in silico molecular docking; cited from earlier work

O=P(Oc1ccccc1)(Oc1ccccc1)Oc1ccccc1 [TPHP, triphenyl phosphate]
IC50 [1]: 27.4 µM | Relative luciferase activity (%) ([1]; 0.01 μM, dose-response, replicates): 85.51% and 90.10% and 106.89% | Relative luciferase activity (%) ([1]; 0.1 μM, dose-response, replicates): 104.74% and 89.81% | Relative luciferase activity (%) ([1]; 0.5 μM, dose-response, replicates): 73.91% and 74.66% | Relative luciferase activity (%) ([1]; 1 μM, dose-response, replicates): 77.48% and 70.96% | Relative luciferase activity (%) ([1]; 5 μM, dose-response, replicates): 51.88% and 54.98% and 76.88% | Luciferase activity compared with DMSO control (in words) ([1]; 10 μM and 25 μM, in the presence of 50 μM CDCA, HEK 293T): significantly less luciferase activity; also recorded: lowest luciferase activity | Relative luciferase activity (%) ([1]; 10 μM compound in the presence of 50 μM CDCA, DMSO 0%, 50 μM CDCA 100%, HEK 293T, replicates): 2.5% and 7.4% and 17.9% | Relative luciferase activity (%) ([1]; 10 μM, dose-response, replicates): 46.34% and 52.21% | Relative luciferase activity (%) ([1]; 25 μM compound in the presence of 50 μM CDCA, DMSO 0%, 50 μM CDCA 100%, HEK 293T, replicates): -6.4% and -7.6% and -3.9% | Relative luciferase activity (%) ([1]; 25 μM, dose-response, replicates): 2.58% and 9.91% and 5.01% | Relative luciferase activity (%) ([1]; 50 μM, dose-response, replicates): -21.44% and -22.90% and -18.55% | Rate of FXR inhibition at the maximum exposure concentration ([1]; HEK 293T DLR assay, maximum exposure concentration): 120.96% | activity at 0.1 µM ([1]; HEK-293T, read-out: Relative luciferase activity (%), 0.1 μM, dose-response, replicates): 87.5% | activity at 0.5 µM ([1]; HEK-293T, read-out: Relative luciferase activity (%), 0.5 μM, dose-response, replicates): 82.3% | activity at 1 µM ([1]; HEK-293T, read-out: Relative luciferase activity (%), 1 μM, dose-response, replicates): 63.9% | activity at 10 µM ([1]; HEK-293T, read-out: Relative luciferase activity (%), 10 μM, dose-response, replicates): 39.7% | Body weight vs control group (in words) ([2]; TPHP-L and TPHP-H groups, last week of 35 d exposure): significantly high BW | Relative body weight ([2]; day0, TPHP-H group): 100% | Relative body weight ([2]; day0, TPHP-L group): 100% | Relative body weight ([2]; day2, TPHP-H group): 100.00% and 95.33% and 100.77% and 93.99% and 94.87% | Relative body weight ([2]; day2, TPHP-L group): 100.70% and 96.31% and 97.06% and 97.18% and 97.32% | Relative body weight ([2]; day4, TPHP-H group): 97.19% and 93.33% and 101.54% and 92.93% and 92.67% | Relative body weight ([2]; day4, TPHP-L group): 97.89% and 93.62% and 95.96% and 97.58% and 94.25% | Relative body weight ([2]; day6, TPHP-H group): 97.59% and 92.00% and 101.92% and 90.46% and 91.58% | Relative body weight ([2]; day6, TPHP-L group): 98.24% and 94.30% and 94.12% and 97.18% and 94.25% | Relative body weight ([2]; day8, TPHP-H group): 98.39% and 93.00% and 103.85% and 92.23% and 93.41% | Relative body weight ([2]; day8, TPHP-L group): 98.59% and 94.30% and 95.59% and 96.37% and 95.40% | Relative body weight ([2]; day10, TPHP-H group): 98.39% and 92.67% (2×) and 103.85% and 90.46% | Relative body weight ([2]; day10, TPHP-L group): 98.24% and 94.30% and 95.59% and 95.97% and 94.25% | Body weight ([2]; day12, TPHP-H group): 24.8 g and 28.9 g and 27.4 g and 26.1 g (2×) | Relative body weight ([2]; day12, TPHP-H group): 99.60% and 96.33% and 105.38% and 92.23% and 95.60% | Body weight ([2]; day12, TPHP-L group): 28.0 g and 28.2 g and 26.3 g and 24.2 g and 24.9 g | Relative body weight ([2]; day12, TPHP-L group): 98.59% and 94.63% and 96.69% and 97.58% and 95.40% | Body weight ([2]; day14, TPHP-H group): 24.9 g and 29.3 g and 27.7 g and 25.9 g and 26.3 g | Relative body weight ([2]; day14, TPHP-H group): 100.00% and 97.67% and 106.54% and 91.52% and 96.34% | Body weight ([2]; day14, TPHP-L group): 28.7 g and 28.5 g and 26.4 g and 23.8 g and 25.1 g | Relative body weight ([2]; day14, TPHP-L group): 101.06% and 95.64% and 97.06% and 95.97% and 96.17% | Body weight ([2]; day16, TPHP-H group): 25.2 g and 29.6 g and 28.2 g and 26.6 g and 26.7 g | Relative body weight ([2]; day16, TPHP-H group): 101.20% and 98.67% and 108.46% and 93.99% and 97.80% | Body weight ([2]; day16, TPHP-L group): 28.9 g (2×) and 27.2 g and 24.0 g and 25.4 g | Relative body weight ([2]; day16, TPHP-L group): 101.76% and 96.98% and 100.00% and 96.77% and 97.32% | Body weight ([2]; day18, TPHP-H group): 25.6 g and 30.6 g and 28.3 g and 26.9 g and 27.4 g | Relative body weight ([2]; day18, TPHP-H group): 102.81% and 102.00% and 108.85% and 95.05% and 100.37% | Body weight ([2]; day18, TPHP-L group): 29.0 g and 29.3 g and 27.4 g and 24.4 g and 25.6 g | Relative body weight ([2]; day18, TPHP-L group): 102.11% and 98.32% and 100.74% and 98.39% and 98.08% | Body weight ([2]; day20, TPHP-H group): 25.6 g and 30.4 g and 28.2 g and 27.6 g (2×) | Body weight ([2]; day20, TPHP-L group): 29.6 g and 30.1 g and 27.7 g and 25.0 g and 26.0 g | Body weight ([2]; day22, TPHP-H group): 25.7 g and 30.4 g and 27.7 g and 27.6 g and 28.0 g | Body weight ([2]; day22, TPHP-L group): 29.5 g and 29.1 g and 27.8 g and 25.2 g and 26.1 g | Body weight ([2]; day24, TPHP-H group): 26.2 g and 30.9 g and 27.9 g and 28.0 g and 28.4 g | Body weight ([2]; day24, TPHP-L group): 29.9 g and 30.1 g and 28.1 g and 25.1 g and 26.4 g | Body weight ([2]; day26, TPHP-H group): 26.8 g and 31.6 g and 28.0 g and 27.8 g and 28.5 g | Body weight ([2]; day26, TPHP-L group): 30.2 g and 31.0 g and 28.7 g and 25.9 g and 26.7 g | Body weight ([2]; day28, TPHP-H group): 27.0 g and 31.6 g and 27.9 g and 28.1 g and 28.9 g | Body weight ([2]; day28, TPHP-L group): 30.1 g and 31.3 g and 28.7 g and 25.4 g and 26.8 g | Body weight ([2]; day30, TPHP-H group): 27.3 g and 32.3 g and 28.7 g and 28.3 g and 29.8 g | Body weight ([2]; day30, TPHP-L group): 29.9 g and 31.6 g and 29.4 g and 26.2 g and 27.1 g | PXR activity reported (in words) (PXR): agonists
